“And” between values parts separate entries of the source, which are not always exact repeats. Identical values can stand only once. Like-named read-outs stand apart in the source and are kept apart here.
What was measured:
[1] = test system: Clone A cells (HCV genotype 1b replicon in Huh-7); experiment: HCV replicon 3-day assay, HCV RNA by TaqMan RT-PCR; format: cell-based, Hepatitis C virus; conditions: for EC50: Hepatitis C virus, Huh-7
Method: The level of HCV RNA from cultures was expressed as % HCV RNA relative to control. Each point represents an average of four replicates. The effective concentration that inhibits 50% of HCV RNA levels (EC50) in the replicon-containing cells is indicated.
The levels of HCV RNA were determined using a quantitative TAQMAN® RT-PCR (PE Applied Biosystems, Foster City, Calif.).
(§1) Drug susceptibility of the replicon-containing cells to various compounds was evaluated as described previously (Howe et al. (2004) Antimicrobial Agents Chem. 48:4813-21). Briefly, cells were treated with increasing concentrations of compounds in medium containing 2% FCS and no G418 for three days at 37° C. and 5% CO2. After incubation, total RNA from the replicon-containing cells was isolated. The levels of HCV, glyceraldehyde 3-phosphate dehydrogenase (GAPDH) and ribosomal (rRNA) RNAs were quantified using TAQMAN® (PE Applied Biosystems, Foster City, Calif.) reverse transcriptase PCR reactions. The amounts of HCV, 18S ribosomal, and GAPDH RNAs in each sample were estimated by comparing the number of cycles during the exponential phase of the PCR amplification with those in the corresponding standard curves. HCV RNA standards used for the construction of the standard curve were prepared by extracting the total RNA from the Clone A cells. The RNA sample was sent to National Genetics Institute to quantify HCV RNA. Total RNA extracted from Clone A cells was quantified by O.D.260 measurement and used for construction of the standard curves of rRNA and GAPDH. The concentrations of the compounds that inhibit 50% of the HCV RNA level (EC50) were determined using the MDL® LIFE SCIENCE WORKBENCH® (LSW) Data Analysis software (MDL Information Systems, San Leandro, Calif.) in Microsoft EXCEL®. The amounts of HCV or GAPDH RNAs in the samples were expressed as HCV RNA (copies) or GAPDH (ng), respectively, per μg of total RNA using rRNA as a marker for total RNA measurement.

1b, BB7-M414I replicon = experiment: Replicon variant 3-day assay; format: cell-based, Hepatitis C virus
Method: (§2) pBB7-replicon variant DNAs were linearized with Sca I, and in vitro transcription was performed using Ambion's […]® T7 High Yield Transcription kit (Austin, Tex.). Purified RNA transcripts were electroporated into Huh-7 cells in quadruplicates using a Biorad GENE PULSER® Electroporation System (Setting: 270V, 950 μF) (Hercules, Calif.). Stably transfected replicon variant cell lines were initially selected with 0.25 mg/ml G418 and stepped up to 1 mg/ml before further testing. One cell plate was stained with Crystal Violet to visualize the number of colonies and determine the colony formation efficiency. Individual cell clones from each plate were pooled and expanded for drug susceptibility testing.
(§3) The contribution of individual amino acid changes on drug resistance was assessed in replicon variants containing single amino acid mutations in NS5B in the background of the genotype 1b, BB7 adaptive replicon (Blight et al. (2000) Science 290:1972-74).
as §1

1b, BB7-S368F replicon = experiment: Replicon variant 3-day assay; format: cell-based, Hepatitis C virus
Method: as §2, §3, §1

1b, BB7-M414T replicon = experiment: Replicon variant 3-day assay; format: cell-based, Hepatitis C virus
Method: as §2, §3, §1

1b, BB7-S365A replicon = experiment: Replicon variant 3-day assay; format: cell-based, Hepatitis C virus
Method: as §2, §3, §1

1b, BB7-S365T replicon = experiment: Replicon variant 3-day assay; format: cell-based, Hepatitis C virus
Method: as §2, §3, §1

1b, BB7-C316Y replicon = experiment: Replicon variant 3-day assay; format: cell-based, Hepatitis C virus; conditions: 1b
Method: as §2, §3, §1

1b, BB7-L314F replicon = experiment: Replicon variant 3-day assay; format: cell-based, Hepatitis C virus
Method: as §2, §3, §1

[2] = test system: 1b, BB7 replicon variants with single NS5B mutations; experiment: Replicon variant assay, several variants taken together; format: cell-based, Hepatitis C virus
Method: as §2, §3, §1

[3] = test system: GAPDH mRNA in Clone A cells; format: cell-based, human; conditions: 0.1 and 1 μM HCV-796, throughout the 16-day period
1b, BB7 replicon (WT) = experiment: Replicon 3-day assay, wild type; format: cell-based, Hepatitis C virus; conditions: for EC50: Hepatitis C virus
Method: as §2, §3, §1

For `CNC(=O)c1c(-c2ccc(F)cc2)oc2cc(N(CCO)S(C)(=O)=O)c(C3CC3)cc12` [HCV-796, 5-cyclopropyl-2-(4-fluorophenyl)-6-[(2-hydroxyethyl)(methylsulfonyl)amino]-N-methyl-1-benzofuran-3-carboxamide], the “Mean log10 Viral Reduction” value ([1]; CloneA cells, 0.7 μM compound, 3-day assay) was 2.1 log10 and 2.1 ± 0.4 (0.7 μM) log10, the EC50 ([1]; CloneA cells, HCV RNA, 72 hours, read-out: EC50 (μM) ± SD) was 0.013 ± 0.013 µM and the EC50 ([1]; hepatoma cells containing a subgenomic genotype 1b HCV replicon, read-out: EC50) was 0.009 µM. The “Fold Resistance” value (1b, BB7-M414I replicon; BB7-M414I vs 1b, BB7) was 8 fold, the “Viral Load Reduction” value (1b, BB7-M414I replicon; BB7-M414I, 2240 nM HCV-796, 3-day assay) was 1.5 ± 0.2 log and the EC50 (1b, BB7-M414I replicon; Hepatitis C virus, 72 h, BB7-M414I, 3-day assay, read-out: HCV RNA EC50 (nM) ± SD) was 23 ± 3 nM. For the same molecule, the “Fold Resistance” value (1b, BB7-S368F replicon; BB7-S368F vs 1b, BB7) was 2 fold, the “Viral Load Reduction” value (1b, BB7-S368F replicon; BB7-S368F, 2240 nM HCV-796, 3-day assay) was 1.4 ± 0.3 log and the EC50 (1b, BB7-S368F replicon; Hepatitis C virus, 72 h, BB7-S368F, 3-day assay, read-out: HCV RNA EC50 (nM) ± SD) was 5 ± 2 nM. The “Fold Resistance” value (1b, BB7-M414T replicon; 1b, BB7-M414T vs 1b, BB7) was 1 fold, the “Viral Load Reduction” value (1b, BB7-M414T replicon; 1b, BB7-M414T, 2240 nM HCV-796, 3-day assay) was 2.0 ± 0.2 log and the “change of susceptibility to HCV-796 (in words)” value (1b, BB7-M414T replicon; M414T replicon vs wild type) was “did not change the susceptibility”. The “Fold Resistance” value (1b, BB7-S365A replicon; BB7-S365A vs 1b, BB7) was 41 fold, the “Viral Load Reduction” value (1b, BB7-S365A replicon; BB7-S365A, 2240 nM HCV-796, 3-day assay) was 1.7 ± 0.1 log and the EC50 (1b, BB7-S365A replicon; Hepatitis C virus, 72 h, BB7-S365A, 3-day assay, read-out: HCV RNA EC50 (nM) ± SD) was 124 ± 41 nM. The “Fold Resistance” value (1b, BB7-S365T replicon; BB7-S365T vs 1b, BB7) was 212 fold, the “Viral Load Reduction” value (1b, BB7-S365T replicon; BB7-S365T, 2240 nM HCV-796, 3-day assay) was 0.6 ± 0.1 log and the EC50 (1b, BB7-S365T replicon; Hepatitis C virus, 72 h, BB7-S365T, 3-day assay, read-out: HCV RNA EC50 (nM) ± SD) was 643 ± 168 nM. The “Fold Resistance” value (1b, BB7-C316Y replicon; BB7-C316Y vs 1b, BB7) was 166 fold, the “Viral Load Reduction” value (1b, BB7-C316Y replicon; BB7-C316Y, 2240 nM HCV-796, 3-day assay) was 0.9 ± 0.2 log and the EC50 (1b, BB7-C316Y replicon; Hepatitis C virus, 72 h, BB7-C316Y, 3-day assay, read-out: HCV RNA EC50 (nM) ± SD) was 501 nM. For the same molecule, the “Fold Resistance” value (1b, BB7-L314F replicon; 1b, BB7-L314F vs 1b, BB7) was 1 fold, the “Viral Load Reduction” value (1b, BB7-L314F replicon; 1b, BB7-L314F, 2240 nM HCV-796, 3-day assay) was 1.6 ± 0.3 log and the EC50 (1b, BB7-L314F replicon; Hepatitis C virus, 72 h, 1b, BB7-L314F, 3-day assay, read-out: HCV RNA EC50 (nM) ± SD) was 4 ± 2 nM. For the same molecule, the “change of susceptibility to HCV-796 (in words)” value (1b, BB7-L314F replicon; L314F replicon vs wild type) was “did not change the susceptibility”, the “effect on the susceptibility to HCV-796 (in words)” value ([2]; I363V and S368F replicon variants) was “modest effect” and the Fold Reduced Susceptibility ([2]; M414I/V replicon variants, range) was 3-8 fold. For the same molecule, the “level of housekeeping gene GAPDH mRNA” value [3] was “remained essentially unchanged”, the “Viral Load Reduction” value (1b, BB7 replicon (WT); 1b, BB7, 2240 nM HCV-796, 3-day assay) was 1.9 ± 0.3 log and the EC50 (1b, BB7 replicon (WT)) was 8.6 nM. For the same molecule, the EC50 (1b, BB7 replicon (WT); 72 h, 1b, BB7, 3-day assay, read-out: HCV RNA EC50 (nM) ± SD) was 3 ± 1 nM.

Source: patent US20080182895A1 (priority 2006, published 2008)
